Test results: ChEMBL document CHEMBL1201862, “PubChem BioAssay data set” (2004)
Activity calls are given as the source filed them.

Key:
X-box-binding protein 1 = X-box-binding protein 1 (Homo sapiens, UniProt P17861); type: functional, Cricetulus griseus;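 also: confirmatory dose-response counter-screen serving a CHOP assay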
[1] = target: DNA damage-inducible transcript 3 protein (Mus musculus, UniProt P35639); type: functional, Cricetulus griseus
[2] = target: T1, E3 ubiquitin-protein ligase XIAP (Homo sapiens, UniProt P98170); assay: small molecules displacing peptide from XIAP – biochemical, IAP family, fluorescence polarization (AID 1018); type: functional
T1 sequence (P98170 whole entry): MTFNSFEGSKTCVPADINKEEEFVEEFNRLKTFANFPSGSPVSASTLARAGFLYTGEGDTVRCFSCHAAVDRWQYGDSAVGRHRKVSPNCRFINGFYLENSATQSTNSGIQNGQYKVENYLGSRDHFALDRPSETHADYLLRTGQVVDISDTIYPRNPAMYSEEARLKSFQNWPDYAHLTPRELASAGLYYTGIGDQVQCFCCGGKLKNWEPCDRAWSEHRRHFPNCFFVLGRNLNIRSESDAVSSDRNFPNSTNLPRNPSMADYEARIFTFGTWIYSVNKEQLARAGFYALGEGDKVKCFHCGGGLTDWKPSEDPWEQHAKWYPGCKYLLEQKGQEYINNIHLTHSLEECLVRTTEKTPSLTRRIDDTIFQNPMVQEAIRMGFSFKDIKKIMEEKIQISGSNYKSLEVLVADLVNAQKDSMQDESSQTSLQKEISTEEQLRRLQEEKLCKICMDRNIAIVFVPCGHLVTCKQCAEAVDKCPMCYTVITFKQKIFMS

[3] = target: T1, E3 ubiquitin-protein ligase XIAP; assay: Counter Screen using XIAP-Bir3 for Chemical Antagonists of Bir1/2 domains of IAP-family anti-apoptotic proteins. [Related pubchem assays (depositor defined):AID1018, AID1449, AID1514, AID1638, AID1749, AID1750, AID488957, AID488963]
[4] = target: Peroxisome proliferator-activated receptor gamma/Nuclear receptor coactivator 2 (Homo sapiens, UniProt P37231); assay: (§1) TR-FRET dose response biochemical High Throughput Screening assay for agonists of the steroid receptor coactivator 2 (SRC-2) recruitment by the peroxisome proliferator-activated receptor gamma (PPAR gamma): non-selective agonists. [Related pubchem assays: 1297, 1032 ]; type: functional
[5] = target: Peroxisome proliferator-activated receptor gamma/Nuclear receptor coactivator 3 (Homo sapiens, UniProt P37231); assay: as §1, with “3 (SRC-3)” for “2 (SRC-2)”, “1301 (Confirmation screen.), 1048 (Primary screen.)]” for “1297, 1032 ]”; type: functional
Chain of Peroxisome proliferator-activated receptor gamma/Nuclear receptor coactivator 3 (P37231 whole entry): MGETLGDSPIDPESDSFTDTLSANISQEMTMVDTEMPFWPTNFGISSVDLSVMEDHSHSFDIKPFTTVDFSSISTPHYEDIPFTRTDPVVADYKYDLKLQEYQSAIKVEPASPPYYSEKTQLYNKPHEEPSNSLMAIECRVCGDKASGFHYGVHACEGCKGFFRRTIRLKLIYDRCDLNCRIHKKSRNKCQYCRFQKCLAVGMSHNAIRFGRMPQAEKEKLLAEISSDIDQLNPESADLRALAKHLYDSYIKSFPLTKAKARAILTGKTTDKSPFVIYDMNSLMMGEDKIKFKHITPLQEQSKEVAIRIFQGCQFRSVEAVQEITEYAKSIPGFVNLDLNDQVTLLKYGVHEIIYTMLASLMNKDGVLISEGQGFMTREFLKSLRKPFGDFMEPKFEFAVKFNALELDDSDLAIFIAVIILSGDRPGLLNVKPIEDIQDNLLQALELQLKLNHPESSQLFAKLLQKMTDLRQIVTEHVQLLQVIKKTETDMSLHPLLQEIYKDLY
Chain of Peroxisome proliferator-activated receptor gamma/Nuclear receptor coactivator 3 (Q9Y6Q9 whole entry, further chain): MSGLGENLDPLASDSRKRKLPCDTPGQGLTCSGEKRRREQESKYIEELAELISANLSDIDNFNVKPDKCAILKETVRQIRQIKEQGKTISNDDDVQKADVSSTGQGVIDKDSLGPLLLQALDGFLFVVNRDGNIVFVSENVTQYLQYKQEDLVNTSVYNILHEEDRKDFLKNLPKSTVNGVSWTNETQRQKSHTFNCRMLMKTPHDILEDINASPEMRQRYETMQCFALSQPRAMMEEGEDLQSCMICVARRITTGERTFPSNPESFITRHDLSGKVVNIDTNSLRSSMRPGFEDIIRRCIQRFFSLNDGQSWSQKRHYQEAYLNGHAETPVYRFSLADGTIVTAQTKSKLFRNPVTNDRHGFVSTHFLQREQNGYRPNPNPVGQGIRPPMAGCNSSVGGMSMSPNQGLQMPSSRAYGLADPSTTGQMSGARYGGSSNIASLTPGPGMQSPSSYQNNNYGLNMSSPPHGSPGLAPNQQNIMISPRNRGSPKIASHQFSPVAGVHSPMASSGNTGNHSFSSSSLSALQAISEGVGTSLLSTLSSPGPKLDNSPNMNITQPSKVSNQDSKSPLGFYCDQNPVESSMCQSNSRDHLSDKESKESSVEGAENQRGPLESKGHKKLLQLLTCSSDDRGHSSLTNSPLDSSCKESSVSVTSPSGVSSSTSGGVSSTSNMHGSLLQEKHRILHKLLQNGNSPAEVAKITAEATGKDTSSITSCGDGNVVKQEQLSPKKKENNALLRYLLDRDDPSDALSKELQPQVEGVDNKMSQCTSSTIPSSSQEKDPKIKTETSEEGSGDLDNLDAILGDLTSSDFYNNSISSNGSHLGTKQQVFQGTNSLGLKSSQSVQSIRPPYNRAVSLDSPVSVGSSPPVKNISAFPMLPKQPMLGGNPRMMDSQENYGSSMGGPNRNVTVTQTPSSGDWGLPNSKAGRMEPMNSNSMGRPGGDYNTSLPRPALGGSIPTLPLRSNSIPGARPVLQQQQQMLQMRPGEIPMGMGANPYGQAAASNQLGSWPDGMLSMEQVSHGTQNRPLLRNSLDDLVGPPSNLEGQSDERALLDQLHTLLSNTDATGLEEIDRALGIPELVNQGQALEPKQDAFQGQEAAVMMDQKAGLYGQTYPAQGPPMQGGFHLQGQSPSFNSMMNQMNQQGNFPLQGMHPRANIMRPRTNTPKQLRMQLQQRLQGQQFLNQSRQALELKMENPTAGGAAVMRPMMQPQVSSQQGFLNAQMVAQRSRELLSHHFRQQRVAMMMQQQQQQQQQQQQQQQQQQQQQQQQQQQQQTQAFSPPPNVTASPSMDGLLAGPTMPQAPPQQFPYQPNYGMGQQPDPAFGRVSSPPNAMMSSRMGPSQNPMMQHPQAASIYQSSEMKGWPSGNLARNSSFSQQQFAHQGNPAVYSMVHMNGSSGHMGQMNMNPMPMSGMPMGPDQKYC

[6] = target: Peroxisome proliferator-activated receptor gamma/Nuclear receptor coactivator 1 (Homo sapiens, UniProt P37231); assay: as §1, with “1 (SRC-1)” for “2 (SRC-2)”, “assays (depositor defined):AID1300, AID1808, AID504735, AID631]” for “assays: 1297, 1032 ]”; type: protein assay
Cannabinoid receptor 2 [7] = target: T2, Cannabinoid receptor 2 (Homo sapiens, UniProt P34972); assay: SAR analysis of antagonists of the Cannabinoid Receptor 2 using an Image-Based Assay - Set 2. [Related pubchem assays (depositor defined):AID1961, AID1965]; type: functional
T2 sequence (P34972 whole entry): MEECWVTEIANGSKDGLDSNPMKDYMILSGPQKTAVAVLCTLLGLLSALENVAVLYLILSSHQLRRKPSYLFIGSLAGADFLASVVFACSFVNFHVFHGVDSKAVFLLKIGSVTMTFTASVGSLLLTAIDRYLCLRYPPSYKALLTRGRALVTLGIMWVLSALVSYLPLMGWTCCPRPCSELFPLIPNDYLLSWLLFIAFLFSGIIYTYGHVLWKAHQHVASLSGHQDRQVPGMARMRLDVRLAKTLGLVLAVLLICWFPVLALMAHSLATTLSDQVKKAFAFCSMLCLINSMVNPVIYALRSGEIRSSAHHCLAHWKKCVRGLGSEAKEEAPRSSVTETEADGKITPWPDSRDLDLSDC

[8] = target: T3, G-protein coupled receptor 35 (Homo sapiens, UniProt Q9HC97); assay: SAR analysis of Antagonists of the GPR35 Receptor using an Image-Based Assay - Set 4. [Related pubchem assays (depositor defined):[…]]; type: functional
T3 sequence (Q9HC97 whole entry): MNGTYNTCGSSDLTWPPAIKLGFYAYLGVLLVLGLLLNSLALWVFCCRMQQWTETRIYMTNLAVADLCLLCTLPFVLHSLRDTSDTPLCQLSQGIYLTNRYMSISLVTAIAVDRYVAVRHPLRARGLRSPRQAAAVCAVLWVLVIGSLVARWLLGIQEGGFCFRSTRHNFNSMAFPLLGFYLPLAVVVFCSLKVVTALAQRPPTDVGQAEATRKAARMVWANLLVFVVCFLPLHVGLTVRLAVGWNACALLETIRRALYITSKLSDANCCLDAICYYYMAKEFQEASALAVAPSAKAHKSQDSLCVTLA

[9] = target: T3, G-protein coupled receptor 35; assay: SAR analysis of Agonists of the GPR35 Receptor using an Image-Based Assay - Set 3. [Related pubchem assays (depositor defined):AID1961, AID1965]; type: functional
Cannabinoid receptor 1 [10] = target: T4, Cannabinoid receptor 1 (Homo sapiens, UniProt P21554); assay: SAR analysis of agonists of the Cannabinoid Receptor 1 using an Image-Based Assay - Set 3. [Related pubchem assays (depositor defined):AID1961, AID1965]; type: functional
T4 sequence (P21554 whole entry): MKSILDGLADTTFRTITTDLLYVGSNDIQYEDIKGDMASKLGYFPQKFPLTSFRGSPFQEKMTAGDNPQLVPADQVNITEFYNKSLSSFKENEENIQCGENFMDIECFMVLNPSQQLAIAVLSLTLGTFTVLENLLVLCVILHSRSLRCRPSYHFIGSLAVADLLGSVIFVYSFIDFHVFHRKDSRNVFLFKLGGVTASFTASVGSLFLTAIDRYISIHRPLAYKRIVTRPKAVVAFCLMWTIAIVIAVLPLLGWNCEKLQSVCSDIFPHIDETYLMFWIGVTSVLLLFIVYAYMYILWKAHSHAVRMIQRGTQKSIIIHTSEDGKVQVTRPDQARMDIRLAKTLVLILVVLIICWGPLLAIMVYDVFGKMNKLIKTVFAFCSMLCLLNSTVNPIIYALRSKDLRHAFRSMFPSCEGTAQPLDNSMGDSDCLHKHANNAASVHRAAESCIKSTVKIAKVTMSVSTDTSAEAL

[11] = target: G-protein coupled receptor 55 (Homo sapiens, UniProt Q9Y2T6); assay: SAR analysis of selective Agonists of GPR55 using an Image-Based Assay - Set 2. [Related pubchem assays (depositor defined):AID1961, AID1965]; type: functional
Chain of G-protein coupled receptor 55 (Q9Y2T6 whole entry): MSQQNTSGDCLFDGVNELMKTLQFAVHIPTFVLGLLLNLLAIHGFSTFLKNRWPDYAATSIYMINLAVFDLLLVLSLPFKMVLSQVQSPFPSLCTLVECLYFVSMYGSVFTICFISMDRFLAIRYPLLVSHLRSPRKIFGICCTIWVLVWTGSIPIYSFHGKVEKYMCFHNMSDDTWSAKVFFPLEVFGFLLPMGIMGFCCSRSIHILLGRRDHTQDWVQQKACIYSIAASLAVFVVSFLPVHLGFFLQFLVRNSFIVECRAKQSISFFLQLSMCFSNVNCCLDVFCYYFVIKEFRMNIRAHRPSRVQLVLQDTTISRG

Cannabinoid receptor 2 [12] = target: T2, Cannabinoid receptor 2; assay: SAR analysis of agonists of the Cannabinoid Receptor 2 using an Image-Based Assay - Set 2. [Related pubchem assays (depositor defined):AID1961, AID1965]; type: functional
Cannabinoid receptor 1 [13] = target: T4, Cannabinoid receptor 1; assay: SAR analysis of antagonists of the Cannabinoid Receptor 1 using an Image-Based Assay - Set 3. [Related pubchem assays (depositor defined):AID1961, AID1965]; type: functional
[14] = Luminescence Cell-Based Dose Response HTS to Identify Activators of Luciferase Translation or Activity in H4-C Neuroglioblastoma Cells. [Related pubchem assays: 1829 (Project Summary), 1814 (Primary HTS)]; type: functional
BJ [15] = assay: cells; type: functional, cell-based; settings: Homo sapiens
[16] = Luminescence Cell-Based Dose Retest to Confirm Activators of 5'UTR Stem-Loop Driven Alpha-Synuclein mRNA Translation in H4 Neuroglioblastoma Cells. [Related pubchem assays (depositor defined):AID1813, AID1829]; type: functional
BJ [17] = assay: BJ-TERT-LT-ST fibroblast viability loss – cell-based, RAS-independent, luminescence, dose response (AID 1935); type: functional; settings: Homo sapiens;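 also: BJ fibroblasts immortalized with TERT plus LT and ST oncogenes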
Transthyretin = Transthyretin (Homo sapiens, UniProt P02766); assay: Luminescence-based cell-based high throughput dose response assay to identify activators of Transthyretin (TTR) transcription.; type: functional
[18] = Luminescence Cell-Based Dose Response HTS to Identify Inhibitors of Luciferase Translation or Activity in H4-C Neuroglioblastoma Cells. [Related pubchem assays: 1813 (Primary HTS), 1827 (Project Summary)]; type: functional
[19] = DRD fibroblast viability loss – cell-based, non-viral oncogenic, luminescence, dose response (AID 1934); type: functional; settings: Homo sapiens
[20] = Luminescence Cell-Based Dose HTS Response to Identify Inhibitors of 5'UTR Stem-Loop Driven Prion Protein mRNA Translation in H4-C Neuroglioblastoma Cells. [Related pubchem assays (depositor defined):AID1814, AID1827]; type: functional
[21] = Luminescence Cell-Based Dose Response HTS to Identify Activators of 5'UTR Stem-Loop Driven Prion Protein mRNA Translation in H4-C Neuroglioblastoma Cells. [Related pubchem assays: 1829 (Project Summary), 1814 (Primary HTS)]; type: functional
[22] = alpha-synuclein stem-loop luciferase translation blockers – H4 neuroglioma cells, luminescence, confirmation (AID 1988); type: functional, cell-based
[23] = HEK-293T viability loss after treatment – luminescence, T-cell screen hits, cytotoxicity control for TCR NF-kB inhibitor project, dose response (AID 489026); type: functional, cell-based;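 also: cells exposed to compound about 14 hours before the viability readout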
[24] = Luminescence Cell-Based Dose Confirmation HTS to Identify Inhibitors of 5'UTR Stem-Loop Driven Alpha-Synuclein mRNA Translation in H4 Neuroglioblastoma Cells. [Related pubchem assays: 1827 (Project Summary), 1813 (Primary HTS)]; type: functional
BJ [25] = assay: BJ-TERT fibroblast viability loss – cell-based, RAS-independent, luminescence, dose response (AID 1933); type: functional; settings: Homo sapiens
[26] = Luminescence Cell-Based Dose Response HTS to Identify Inhibitors of 5'UTR Stem-Loop Driven Prion Protein mRNA Translation in H4 Neuroglioblastoma Cells. [Related pubchem assays: 1827 (Project Summary), 1813 (Primary HTS)]; type: functional
[27] = luciferase reporter signal suppression in cells – H4 neuroglioma cells, luminescence, dose response (AID 1990); type: functional, cell-based

Chain of DNA damage-inducible transcript 3 protein (P35639 whole entry): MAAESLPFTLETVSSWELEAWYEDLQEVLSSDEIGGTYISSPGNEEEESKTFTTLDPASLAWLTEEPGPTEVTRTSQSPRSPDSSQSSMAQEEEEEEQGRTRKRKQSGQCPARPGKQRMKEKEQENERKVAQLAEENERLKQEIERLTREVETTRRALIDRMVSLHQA
Chain of X-box-binding protein 1 (P17861 whole entry): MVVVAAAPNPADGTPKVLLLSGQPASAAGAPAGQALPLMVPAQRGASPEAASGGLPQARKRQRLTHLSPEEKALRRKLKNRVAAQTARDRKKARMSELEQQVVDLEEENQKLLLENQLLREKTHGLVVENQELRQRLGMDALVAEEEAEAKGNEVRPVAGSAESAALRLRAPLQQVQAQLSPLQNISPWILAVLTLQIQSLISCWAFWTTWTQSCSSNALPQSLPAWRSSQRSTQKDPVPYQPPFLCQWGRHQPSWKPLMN

## COc1cccc(Nc2ncnc3c2cnn3-c2cccc(C)c2)c1
X-box-binding protein 1
  Absolute IC50 (XBP1): 10 µM
[1]
  Absolute IC50 (CHOP): 10 µM

## CC(C)CNS(=O)(=O)c1ccc(CCC(=O)N2CCN(Cc3ccccc3)CC2)cc1
[2]
  IC50: > 100 µM (not active)
[3]
  IC50: > 100 µM (inactive)

## c1cc2c(cnc3cscc32)s1
[4]
  EC50: 12 µM (not active)
[5]
  EC50: 69.3 µM (not active)
[6]
  EC50: 8.78 µM (active)

## Cc1ccccc1N1CCN(C(=O)c2cc(S(=O)(=O)N3CCCCC3)ccc2N2CCCC2)CC1
Cannabinoid receptor 2 [7]
  IC50: > 32 µM (inactive)
[8]
  IC50: > 32 µM (inactive)
[9]
  EC50: > 32 µM (inactive)
Cannabinoid receptor 1 [10]
  EC50: > 32 µM (inactive)
[11]
  EC50: > 32 µM (inactive)
Cannabinoid receptor 2 [12]
  EC50: > 32 µM (inactive)
Cannabinoid receptor 1 [13]
  IC50: > 32 µM (inactive)

## CCOC(=O)Nc1nc(-c2ccccc2)c(C(=O)c2ccc(Cl)cc2)s1
[14]
  EC50: 2.32 µM (inconclusive)
BJ [15]
  EC50: 15.6 µM (active)
[16]
  EC50: 1.76 µM (inconclusive)
BJ [17]
  EC50: 1.45 µM (inconclusive)
Transthyretin
  EC50: > 167 µM (inactive)
[18]
  EC50: 2.32 µM (active)
[19]
  EC50: 1.28 µM (active)
[20]
  EC50: 1.95 µM (active)
[21]
  EC50: 1.95 µM (inconclusive)
[22]
  EC50: 108 nM (active)
[23]
  IC50: > 80 µM (inactive)
[24]
  EC50: 1.76 µM (active)
BJ [25]
  EC50: 1.26 µM (inconclusive)
[26]
  EC50: 3.25 µM (active)
[27]
  EC50: 5.3 µM (active)
